Drawing on patent US11331369B2, “Endoparasitic depsipeptides” (Zoetis Services LLC, priority 2017, dated 2022), this text covers minimal effective concentration for nine molecules.

What all share (type): cell-based
Experiment [1] concerns third stage larvae of Haemonchus contortus. The experiment in a line: Haemonchus contortus L3 (HcL3) Assay. The settings on record: 96 h, read-out: HcL3 Minimum Effective Dose (MED).
Experiment [2] relates to microfilariae of Dirofilaria immitis. In words: Dirofilaria immitis, Microfilaria (DiMF) In vitro Assay. The settings on record: 72 h, read-out: DiMF Minimum Effective Dose (MED), approximately 72 hours incubation, microfilariae assessed for survival or paralysis.
In experiment [3] the test system is 4th stage larvae (L4) of Dirofilaria immitis. In words: Dirofilaria immitis, L4 Stage (DiL4) In Vitro Assay. The settings on record: Dirofilaria immitis, 72 h, read-out: DiL4 Minimum Effective Dose (MED), approximately 72 hours incubation; L4 larvae assessed for survival or paralysis.

With `COc1ccc(-c2ccnn2Cc2ccc(C[C@H]3OC(=O)[C@H](CC(C)C)N(C)C(=O)[C@@H](C)OC(=O)[C@H](CC(C)C)N(C)C(=O)[C@@H](Cc4ccc(Cn5nccc5-c5ccc(OC)nc5)cc4)OC(=O)[C@H](CC(C)C)N(C)C(=O)[C@@H](C)OC(=O)[C@H](CC(C)C)N(C)C3=O)cc2)cn1` [Example 1b-190, (3S,6R,9S,12R,15S,18R,21S,24R)-3,9,15,21-tetraisobutyl-6,18-bis(4-((5-(6-methoxypyridin-3-yl)-1H-pyrazol-1-yl)methyl)benzyl)-4,10,12,16,22,24-hexamethyl-1,7,13,19-tetraoxa-4,10,16,22-tetraazacyclotetracosan-2,5,8,11,14,17,20,23-octaone], the results for the minimal effective concentration in experiment [1], in experiment [2] and in experiment [3] were 1 to 10 µM, 0.001 to 0.01 µM and 0.0001 to 0.001 µM, respectively.

As to `Cc1cnn(Cc2ccc(C[C@H]3OC(=O)[C@H](CC(C)C)N(C)C(=O)[C@@H](C)OC(=O)[C@H](CC(C)C)N(C)C(=O)[C@@H](Cc4ccc(Cn5cc(I)cn5)cc4)OC(=O)[C@H](CC(C)C)N(C)C(=O)[C@@H](C)OC(=O)[C@H](CC(C)C)N(C)C3=O)cc2)c1` [Example 1a-20, (3S,6R,9S,12R,15S,18R,21S,24R)-6-(4-((4-iodo-1H-pyrazol-1-yl)methyl)benzyl)-3,9,15,21-tetraisobutyl-4,10,12,16,22,24-hexamethyl-18-(4-((4-methyl-1H-pyrazol-1-yl)methyl)benzyl)-1,7,13,19-tetraoxa-4,10,16,22-tetraazacyclotetracosan-2,5,8,11,14,17,20,23-octaone], the minimal effective concentration in experiment [1] was 1 to 10 µM; in experiment [2] it was 0.001 to 0.01 µM; in experiment [3], 0.0001 to 0.001 µM.

For `CCC#Cc1cnn(Cc2ccc(C[C@H]3OC(=O)[C@H](CC(C)C)N(C)C(=O)[C@@H](C)OC(=O)[C@H](CC(C)C)N(C)C(=O)[C@@H](Cc4ccc(Cn5cc(C#CCC)cn5)cc4)OC(=O)[C@H](CC(C)C)N(C)C(=O)[C@@H](C)OC(=O)[C@H](CC(C)C)N(C)C3=O)cc2)c1` [Example 1b-119, (3S,6R,9S,12R,15S,18R,21S,24R)-6,18-bis(4-((4-(but-1-yn-1-yl)-1H-pyrazol-1-yl)methyl)benzyl)-3,9,15,21-tetraisobutyl-4,10,12,16,22,24-hexamethyl-1,7,13,19-tetraoxa-4,10,16,22-tetraazacyclotetracosan-2,5,8,11,14,17,20,23-octaone], the minimal effective concentration is 10 to 100 µM in experiment [1], 0.001 to 0.01 µM in experiment [2] and at most 0.0001 µM in experiment [3].

Consider `CCc1cc(C)nn1Cc1ccc(C[C@H]2OC(=O)[C@H](CC(C)C)N(C)C(=O)[C@@H](C)OC(=O)[C@H](CC(C)C)N(C)C(=O)[C@@H](Cc3ccc(Cn4nc(C)cc4CC)cc3)OC(=O)[C@H](CC(C)C)N(C)C(=O)[C@@H](C)OC(=O)[C@H](CC(C)C)N(C)C2=O)cc1` [Example 1b-187, (3S,6R,9S,12R,15S,18R,21S,24R)-6,18-bis(4-((5-ethyl-3-methyl-1H-pyrazol-1-yl)methyl)benzyl)-3,9,15,21-tetraisobutyl-4,10,12,16,22,24-hexamethyl-1,7,13,19-tetraoxa-4,10,16,22-tetraazacyclotetracosan-2,5,8,11,14,17,20,23-octaone], for which the minimal effective concentration was 1 to 10 µM in experiment [1], 0.01 to 0.1 µM in experiment [2] and 0.001 to 0.01 µM in experiment [3].

Consider `CC(C)C[C@H]1C(=O)O[C@H](Cc2ccc(Cn3nccc3C(F)(F)F)cc2)C(=O)N(C)[C@@H](CC(C)C)C(=O)O[C@H](C)C(=O)N(C)[C@@H](CC(C)C)C(=O)O[C@H](Cc2ccc(Cn3ccc(C(F)(F)F)n3)cc2)C(=O)N(C)[C@@H](CC(C)C)C(=O)O[C@H](C)C(=O)N1C` [Example 1a-26, (3S,6R,9S,12R,15S,18R,21S,24R)-3,9,15,21-tetraisobutyl-4,6,10,16,18,22-hexamethyl-12-(4-((3-(trifluoromethyl)-1H-pyrazol-1-yl)methyl)benzyl)-24-(4-((5-(trifluoromethyl)-1H-pyrazol-1-yl)methyl)benzyl)-1,7,13,19-tetraoxa-4,10,16,22-tetraazacyclotetracosan-2,5,8,11,14,17,20,23-octaone], for which the minimal effective concentration lay within 1 to 10 µM in experiment [1], 0.01 to 0.1 µM in experiment [2] and 0.0001 to 0.001 µM in experiment [3].

Consider `C#Cc1cnn(Cc2ccc(C[C@H]3OC(=O)[C@H](CC(C)C)N(C)C(=O)[C@@H](C)OC(=O)[C@H](CC(C)C)N(C)C(=O)[C@@H](Cc4ccccc4)OC(=O)[C@H](CC(C)C)N(C)C(=O)[C@@H](C)OC(=O)[C@H](CC(C)C)N(C)C3=O)cc2)c1` [Example 2-51, (3S,6R,9S,12R,15S,18R,21S,24R)-6-benzyl-18-(4-((4-ethynyl-1H-pyrazol-1-yl)methyl)benzyl)-3,9,15,21-tetraisobutyl-4,10,12,16,22,24-hexamethyl-1,7,13,19-tetraoxa-4,10,16,22-tetraazacyclotetracosan-2,5,8,11,14,17,20,23-octaone], for which the minimal effective concentration lay within 1 to 10 µM in experiment [1], 0.001 to 0.01 µM in experiment [2] and 0.0001 to 0.001 µM in experiment [3].

Regarding `CC(C)C[C@H]1C(=O)O[C@H](Cc2ccc(Cn3nccc3C(C)C)cc2)C(=O)N(C)[C@@H](CC(C)C)C(=O)O[C@H](C)C(=O)N(C)[C@@H](CC(C)C)C(=O)O[C@H](Cc2ccc(Cn3nccc3C(C)C)cc2)C(=O)N(C)[C@@H](CC(C)C)C(=O)O[C@H](C)C(=O)N1C` [Example 1b-126, (3S,6R,9S,12R,15S,18R,21S,24R)-3,9,15,21-tetraisobutyl-6,18-bis(4-((5-isopropyl-1H-pyrazol-1-yl)methyl)benzyl)-4,10,12,16,22,24-hexamethyl-1,7,13,19-tetraoxa-4,10,16,22-tetraazacyclotetracosan-2,5,8,11,14,17,20,23-octaone], the minimal effective concentration in experiment [1] lay within 1 to 10 µM; in experiment [2], 0.001 to 0.01 µM; in experiment [3] it was 0.0001 to 0.001 µM.

Turning to `CC(C)C[C@H]1C(=O)O[C@H](Cc2ccc(Cn3nccc3CC3CC3)cc2)C(=O)N(C)[C@@H](CC(C)C)C(=O)O[C@H](C)C(=O)N(C)[C@@H](CC(C)C)C(=O)O[C@H](Cc2ccc(Cn3nccc3CC3CC3)cc2)C(=O)N(C)[C@@H](CC(C)C)C(=O)O[C@H](C)C(=O)N1C` [Example 1b-206, (3S,6R,9S,12R,15S,18R,21S,24R)-6,18-bis(4-((5-(cyclopropylmethyl)-1H-pyrazol-1-yl)methyl)benzyl)-3,9,15,21-tetraisobutyl-4,10,12,16,22,24-hexamethyl-1,7,13,19-tetraoxa-4,10,16,22-tetraazacyclotetracosan-2,5,8,11,14,17,20,23-octaone], the minimal effective concentration was at most 1 µM in experiment [1], 0.01 to 0.1 µM in experiment [2] and 0.0001 to 0.001 µM in experiment [3].

As to `COC(C)(C)c1ccnn1Cc1ccc(C[C@H]2OC(=O)[C@H](CC(C)C)N(C)C(=O)[C@@H](C)OC(=O)[C@H](CC(C)C)N(C)C(=O)[C@@H](Cc3ccc(Cn4nccc4C(C)(C)OC)cc3)OC(=O)[C@H](CC(C)C)N(C)C(=O)[C@@H](C)OC(=O)[C@H](CC(C)C)N(C)C2=O)cc1` [Example 1b-220, (3S,6R,9S,12R,15S,18R,21S,24R)-3,9,15,21-tetraisobutyl-6,18-bis(4-((5-(2-methoxypropan-2-yl)-1H-pyrazol-1-yl)methyl)benzyl)-4,10,12,16,22,24-hexamethyl-1,7,13,19-tetraoxa-4,10,16,22-tetraazacyclotetracosan-2,5,8,11,14,17,20,23-octaone], the minimal effective concentration fell in the range of 10 to 100 µM in experiment [1], 0.001 to 0.01 µM in experiment [2] and 0.001 to 0.01 µM in experiment [3].
